{"source": "paper PMC6858350", "about": "“A common mechanism allows selective targeting of GluN2B subunit-containing N-methyl-D-aspartate receptors” (Communications Biology, 2019)", "key": {"GluN1-1a F113S/GluN2B WT [1]": {"biological_target": "T1, GluN1-1a F113S/GluN2B WT (Rattus norvegicus, UniProt P35439+Q00960, F113S)", "conditions": "GluN1-1a F113S"}, "GluN1-1a WT/GluN2B I111A [2]": {"biological_target": "T2, GluN1-1a WT/GluN2B I111A (Rattus norvegicus, UniProt P35439+Q00960, I111A)", "T2 sequence (Q00960 27-1482 I111A, other chains not shown)": "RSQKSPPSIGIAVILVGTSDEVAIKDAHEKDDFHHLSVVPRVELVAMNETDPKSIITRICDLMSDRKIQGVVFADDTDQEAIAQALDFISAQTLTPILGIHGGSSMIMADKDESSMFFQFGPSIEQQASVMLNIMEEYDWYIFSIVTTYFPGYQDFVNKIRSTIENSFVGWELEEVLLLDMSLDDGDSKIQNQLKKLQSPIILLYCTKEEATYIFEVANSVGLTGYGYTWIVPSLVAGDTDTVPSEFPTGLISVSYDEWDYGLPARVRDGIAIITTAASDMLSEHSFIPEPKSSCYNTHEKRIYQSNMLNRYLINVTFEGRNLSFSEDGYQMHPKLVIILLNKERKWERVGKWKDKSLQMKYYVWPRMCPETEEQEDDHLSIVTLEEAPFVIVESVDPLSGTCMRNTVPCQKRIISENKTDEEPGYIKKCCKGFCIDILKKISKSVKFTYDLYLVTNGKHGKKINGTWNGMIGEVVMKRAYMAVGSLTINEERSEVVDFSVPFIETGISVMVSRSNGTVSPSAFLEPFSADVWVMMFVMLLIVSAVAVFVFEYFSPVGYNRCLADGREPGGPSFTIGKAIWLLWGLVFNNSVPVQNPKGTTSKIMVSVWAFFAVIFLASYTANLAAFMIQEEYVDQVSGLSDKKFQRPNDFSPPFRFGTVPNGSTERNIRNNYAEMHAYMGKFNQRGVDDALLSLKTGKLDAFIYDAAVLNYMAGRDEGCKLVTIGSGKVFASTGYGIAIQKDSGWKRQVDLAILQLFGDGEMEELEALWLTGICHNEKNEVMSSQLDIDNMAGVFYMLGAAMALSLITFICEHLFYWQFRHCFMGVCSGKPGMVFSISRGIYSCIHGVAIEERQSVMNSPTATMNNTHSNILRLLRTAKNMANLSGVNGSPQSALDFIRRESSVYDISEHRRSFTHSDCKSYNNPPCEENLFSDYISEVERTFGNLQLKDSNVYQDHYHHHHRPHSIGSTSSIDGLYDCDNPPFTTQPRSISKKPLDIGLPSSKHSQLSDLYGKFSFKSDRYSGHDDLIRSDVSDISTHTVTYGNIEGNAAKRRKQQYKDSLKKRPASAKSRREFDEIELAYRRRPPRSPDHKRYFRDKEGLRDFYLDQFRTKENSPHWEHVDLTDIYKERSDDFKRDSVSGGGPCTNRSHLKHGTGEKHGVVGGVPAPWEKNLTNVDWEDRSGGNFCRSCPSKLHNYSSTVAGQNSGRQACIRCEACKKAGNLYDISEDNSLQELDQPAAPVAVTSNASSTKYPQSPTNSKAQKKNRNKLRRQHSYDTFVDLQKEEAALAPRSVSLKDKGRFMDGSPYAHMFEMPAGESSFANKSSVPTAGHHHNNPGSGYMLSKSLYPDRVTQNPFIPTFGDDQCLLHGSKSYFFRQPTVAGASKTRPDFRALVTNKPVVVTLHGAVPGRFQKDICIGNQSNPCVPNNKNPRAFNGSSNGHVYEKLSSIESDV", "experiment": "cell-based"}, "GluN1-1a Y109S/GluN2B WT [3]": {"biological_target": "T3, GluN1-1a Y109S/GluN2B WT (Rattus norvegicus, UniProt P35439+Q00960, Y109S)", "experiment": "cell-based"}, "GluN1-1a/GluN2C NMDAR": {"biological_target": "GluN1-1a/GluN2C NMDAR (Rattus norvegicus, UniProt P35439+Q00961)", "experiment": "cell-based", "conditions": "read-out: ion current inhibition % ± SEM, GluN2C"}, "GluN1-1a/GluN2A NMDAR": {"biological_target": "GluN1-1a/GluN2A NMDAR (Rattus norvegicus, UniProt P35439+Q00959)", "experiment": "cell-based", "conditions": "read-out: ion current inhibition % ± SEM, GluN2A"}, "[4]": {"biological_target": "GluN1-1a/GluN2B NMDAR (wildtype) (Rattus norvegicus, UniProt P35439+Q00960)", "format": "cell-based"}, "[5]": {"biological_target": "T4, GluN1-1a/GluN2B (ifenprodil binding site) (Homo sapiens, UniProt Q05586+Q13224)", "T4 construct": "expressed in transfected cells; host or cells: mouse L(tk) cells, dexamethasone-inducible expression; membrane fraction", "conditions": "displacement of [3H]ifenprodil; Ki values previously published; read-out: Ki + SEM; cited from earlier work"}, "GluN1-1a S132A/GluN2B WT [6]": {"biological_target": "T5, GluN1-1a S132A/GluN2B WT (Rattus norvegicus, UniProt P35439+Q00960, S132A)", "conditions": "GluN1-1a S132A"}, "GluN1-1a L135N/GluN2B WT [7]": {"biological_target": "T6, GluN1-1a L135N/GluN2B WT (Rattus norvegicus, UniProt P35439+Q00960, L135N)", "conditions": "GluN1-1a L135N"}, "GluN1-1a WT/GluN2B F176A [8]": {"biological_target": "T7, GluN1-1a WT/GluN2B F176A (Rattus norvegicus, UniProt P35439+Q00960, F176A)", "T7 sequence (Q00960 27-1482 F176A, other chains not shown)": "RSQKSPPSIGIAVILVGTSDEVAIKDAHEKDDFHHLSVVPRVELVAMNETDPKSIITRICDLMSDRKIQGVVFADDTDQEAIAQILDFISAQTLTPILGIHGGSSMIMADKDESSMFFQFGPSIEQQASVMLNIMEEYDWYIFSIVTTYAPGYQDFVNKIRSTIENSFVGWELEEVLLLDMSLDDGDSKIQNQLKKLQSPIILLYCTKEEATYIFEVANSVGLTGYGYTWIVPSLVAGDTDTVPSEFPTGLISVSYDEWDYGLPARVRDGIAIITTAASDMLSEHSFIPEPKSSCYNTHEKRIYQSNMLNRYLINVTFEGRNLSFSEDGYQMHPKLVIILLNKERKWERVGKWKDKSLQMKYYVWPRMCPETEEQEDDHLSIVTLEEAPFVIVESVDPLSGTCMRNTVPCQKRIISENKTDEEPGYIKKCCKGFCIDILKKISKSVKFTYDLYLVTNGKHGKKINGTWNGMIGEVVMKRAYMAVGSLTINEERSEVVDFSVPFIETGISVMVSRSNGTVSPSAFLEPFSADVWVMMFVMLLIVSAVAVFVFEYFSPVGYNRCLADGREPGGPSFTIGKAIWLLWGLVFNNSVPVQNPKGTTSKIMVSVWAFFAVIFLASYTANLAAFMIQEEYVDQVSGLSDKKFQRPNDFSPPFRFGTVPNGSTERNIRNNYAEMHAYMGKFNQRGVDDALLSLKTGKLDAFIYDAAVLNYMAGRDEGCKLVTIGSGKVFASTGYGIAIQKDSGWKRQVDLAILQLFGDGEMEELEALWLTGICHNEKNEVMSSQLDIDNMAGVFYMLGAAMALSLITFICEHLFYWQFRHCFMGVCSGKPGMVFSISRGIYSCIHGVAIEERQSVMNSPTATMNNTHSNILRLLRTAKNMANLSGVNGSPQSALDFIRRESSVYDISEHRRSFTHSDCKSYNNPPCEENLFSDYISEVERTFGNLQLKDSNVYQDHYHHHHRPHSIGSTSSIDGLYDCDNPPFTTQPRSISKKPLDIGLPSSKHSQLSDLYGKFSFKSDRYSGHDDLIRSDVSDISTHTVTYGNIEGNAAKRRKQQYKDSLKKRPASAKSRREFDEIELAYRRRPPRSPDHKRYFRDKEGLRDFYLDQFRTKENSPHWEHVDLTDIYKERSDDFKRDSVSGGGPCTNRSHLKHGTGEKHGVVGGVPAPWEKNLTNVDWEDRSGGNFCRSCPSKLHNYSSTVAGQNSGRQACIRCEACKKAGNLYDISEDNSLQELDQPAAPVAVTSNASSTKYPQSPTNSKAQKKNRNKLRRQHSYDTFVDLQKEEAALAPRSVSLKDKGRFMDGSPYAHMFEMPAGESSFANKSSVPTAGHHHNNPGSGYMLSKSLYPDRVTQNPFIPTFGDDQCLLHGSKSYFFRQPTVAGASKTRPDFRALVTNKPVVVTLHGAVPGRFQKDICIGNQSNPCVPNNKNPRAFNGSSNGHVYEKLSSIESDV", "conditions": "GluN2B F176A"}, "GluN1-1a/GluN2D NMDAR": {"biological_target": "GluN1-1a/GluN2D NMDAR (Rattus norvegicus, UniProt P35439+Q62645)", "experiment": "cell-based", "conditions": "read-out: ion current inhibition % ± SEM, GluN2D"}, "GluN1-1a WT/GluN2B F114A [9]": {"biological_target": "T8, GluN1-1a WT/GluN2B F114A (Rattus norvegicus, UniProt P35439+Q00960, F114A)", "conditions": "GluN2B F114A"}, "GluN1-1a WT/GluN2B F114A [10]": {"biological_target": "T8, GluN1-1a WT/GluN2B F114A", "experiment": "cell-based"}, "GluN1-1a WT/GluN2B Q110A [11]": {"biological_target": "T9, GluN1-1a WT/GluN2B Q110A (Rattus norvegicus, UniProt P35439+Q00960, Q110A)", "T9 sequence (Q00960 27-1482 Q110A, other chains not shown)": "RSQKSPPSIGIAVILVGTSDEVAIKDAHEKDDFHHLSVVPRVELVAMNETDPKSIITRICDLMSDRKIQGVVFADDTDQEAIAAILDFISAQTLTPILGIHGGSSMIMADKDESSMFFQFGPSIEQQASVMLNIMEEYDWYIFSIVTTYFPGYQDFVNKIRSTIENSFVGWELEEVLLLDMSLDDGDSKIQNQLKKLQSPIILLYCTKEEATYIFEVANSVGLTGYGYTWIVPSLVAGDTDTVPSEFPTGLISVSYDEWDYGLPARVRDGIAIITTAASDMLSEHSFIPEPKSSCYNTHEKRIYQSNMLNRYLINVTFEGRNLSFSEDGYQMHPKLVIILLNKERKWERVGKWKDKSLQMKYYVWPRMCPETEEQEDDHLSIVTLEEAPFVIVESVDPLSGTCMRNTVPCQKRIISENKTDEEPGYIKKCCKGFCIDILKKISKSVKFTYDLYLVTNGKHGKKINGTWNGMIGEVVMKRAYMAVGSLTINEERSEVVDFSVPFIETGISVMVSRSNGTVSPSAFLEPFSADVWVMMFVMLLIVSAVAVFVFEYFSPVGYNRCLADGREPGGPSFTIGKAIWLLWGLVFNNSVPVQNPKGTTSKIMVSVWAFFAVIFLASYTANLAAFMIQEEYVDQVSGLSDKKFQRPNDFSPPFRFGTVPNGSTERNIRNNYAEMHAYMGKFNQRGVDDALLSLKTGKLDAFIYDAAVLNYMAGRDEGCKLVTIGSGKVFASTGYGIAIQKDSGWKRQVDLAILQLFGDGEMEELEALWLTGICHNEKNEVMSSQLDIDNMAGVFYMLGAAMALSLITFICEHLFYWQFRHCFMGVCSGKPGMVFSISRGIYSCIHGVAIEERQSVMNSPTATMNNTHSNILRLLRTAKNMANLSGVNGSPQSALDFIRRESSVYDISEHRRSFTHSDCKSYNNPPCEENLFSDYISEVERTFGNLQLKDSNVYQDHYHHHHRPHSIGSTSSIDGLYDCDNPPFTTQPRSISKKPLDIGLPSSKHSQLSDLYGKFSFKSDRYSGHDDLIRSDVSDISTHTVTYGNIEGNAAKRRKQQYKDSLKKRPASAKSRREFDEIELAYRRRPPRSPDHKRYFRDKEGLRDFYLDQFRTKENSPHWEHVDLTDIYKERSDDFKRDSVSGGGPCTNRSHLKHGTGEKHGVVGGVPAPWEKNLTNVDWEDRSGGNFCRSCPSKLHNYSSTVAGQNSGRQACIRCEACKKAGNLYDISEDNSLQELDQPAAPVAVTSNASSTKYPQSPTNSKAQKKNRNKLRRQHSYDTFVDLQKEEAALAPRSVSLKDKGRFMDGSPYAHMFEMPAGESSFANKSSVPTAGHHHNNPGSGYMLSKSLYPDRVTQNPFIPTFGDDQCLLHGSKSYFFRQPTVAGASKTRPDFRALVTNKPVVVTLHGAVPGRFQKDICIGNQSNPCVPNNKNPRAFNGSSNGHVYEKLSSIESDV", "conditions": "GluN2B Q110A"}, "GluN1-1a F113S/GluN2B WT [12]": {"biological_target": "T1, GluN1-1a F113S/GluN2B WT", "experiment": "cell-based"}, "GluN1-1a WT/GluN2B I111A [13]": {"biological_target": "T2, GluN1-1a WT/GluN2B I111A", "conditions": "GluN2B I111A"}, "GluN1-1a WT/GluN2B Q110A [14]": {"biological_target": "T9, GluN1-1a WT/GluN2B Q110A", "experiment": "cell-based"}, "GluN1-1a WT/GluN2B F176Y [15]": {"biological_target": "T10, GluN1-1a WT/GluN2B F176Y (Rattus norvegicus, UniProt P35439+Q00960, F176Y)", "conditions": "GluN2B F176Y"}, "GluN1-1a WT/GluN2B F176A [16]": {"biological_target": "T7, GluN1-1a WT/GluN2B F176A", "experiment": "cell-based"}, "GluN1-1a S132A/GluN2B WT [17]": {"biological_target": "T5, GluN1-1a S132A/GluN2B WT", "experiment": "cell-based"}, "GluN1-1a Y109S/GluN2B WT [18]": {"biological_target": "T3, GluN1-1a Y109S/GluN2B WT", "conditions": "GluN1-1a Y109S"}, "GluN1-1a WT/GluN2B F176Y [19]": {"biological_target": "T10, GluN1-1a WT/GluN2B F176Y", "experiment": "cell-based"}, "GluN1-1a L135N/GluN2B WT [20]": {"biological_target": "T6, GluN1-1a L135N/GluN2B WT", "experiment": "cell-based"}, "GluN1-1a WT/GluN2B E236A": {"biological_target": "GluN1-1a WT/GluN2B E236A (Rattus norvegicus, UniProt P35439+Q00960, E236A)", "conditions": "GluN2B E236A"}, "[21]": {"conditions": "maximum inhibition fixed to wildtype value"}}}
{"smiles": "Oc1ccc2c(c1)CCN(CCCCc1ccccc1)C[C@H]2O", "note": "[compound (S)-1]", "values": [{"measurement": "p (slope)", "setting": "GluN1-1a F113S/GluN2B WT [1]", "value": 0.87}, {"measurement": "A2 ± SE", "setting": "GluN1-1a F113S/GluN2B WT [1]; flexible A2", "value": "89 ± 4", "unit": "%"}, {"measurement": "IC50", "setting": "GluN1-1a WT/GluN2B I111A [2]", "value": "1560 ± 504", "unit": "nM"}, {"measurement": "IC50", "setting": "GluN1-1a Y109S/GluN2B WT [3]", "value": "764 ± 189", "unit": "nM"}, {"measurement": "inhibition at 10 µM", "setting": "GluN1-1a/GluN2C NMDAR", "value": "19 ± 2", "unit": "%"}, {"measurement": "inhibition at 10 µM", "setting": "GluN1-1a/GluN2A NMDAR", "value": "6 ± 2", "unit": "%"}, {"measurement": "IC50", "setting": "[4]; TEVC, holding potential −70 mV, 10 µM glycine and 10 µM (S)-glutamate, wildtype, read-out: IC50 ± SE", "value": "206 ± 23", "unit": "nM"}, {"measurement": "p (slope of the dose-response curve)", "setting": "[4]; TEVC, −70 mV, wildtype", "value": 0.98}, {"measurement": "A2 ± SE (maximum inhibition from dose-response curve)", "setting": "[4]; TEVC, −70 mV, wildtype, flexible A2", "value": "95 ± 2", "unit": "%"}, {"measurement": "inhibition at 10 µM", "setting": "[4]; read-out: ion current inhibition % ± SEM, GluN2B", "value": "93 ± 1", "unit": "%"}, {"measurement": "Ki", "setting": "[5]", "value": "740 ± 61", "unit": "nM"}, {"measurement": "p (slope)", "setting": "GluN1-1a S132A/GluN2B WT [6]", "value": 1.16}, {"measurement": "A2 ± SE", "setting": "GluN1-1a S132A/GluN2B WT [6]; flexible A2", "value": "89 ± 1", "unit": "%"}, {"measurement": "p (slope)", "setting": "GluN1-1a L135N/GluN2B WT [7]", "value": 0.98}, {"measurement": "A2 ± SE", "setting": "GluN1-1a L135N/GluN2B WT [7]; flexible A2", "value": "68 ± 7", "unit": "%"}, {"measurement": "p (slope)", "setting": "GluN1-1a WT/GluN2B F176A [8]", "value": 1.00}, {"measurement": "A2, fixed-to-wildtype (*)", "setting": "GluN1-1a WT/GluN2B F176A [8]; [21]", "value": 95, "unit": "%"}, {"measurement": "inhibition at 10 µM", "setting": "GluN1-1a/GluN2D NMDAR", "value": "21 ± 3", "unit": "%"}, {"measurement": "p (slope)", "setting": "GluN1-1a WT/GluN2B F114A [9]", "value": 1.26}, {"measurement": "A2, fixed-to-wildtype (*)", "setting": "GluN1-1a WT/GluN2B F114A [9]; [21]", "value": 95, "unit": "%"}, {"measurement": "IC50", "setting": "GluN1-1a WT/GluN2B F114A [10]", "value": "38900 ± 5280", "unit": "nM"}, {"measurement": "p (slope)", "setting": "GluN1-1a WT/GluN2B Q110A [11]", "value": 1.27}, {"measurement": "A2 ± SE", "setting": "GluN1-1a WT/GluN2B Q110A [11]; flexible A2", "value": "94 ± 2", "unit": "%"}, {"measurement": "IC50", "setting": "GluN1-1a F113S/GluN2B WT [12]", "value": "756 ± 137", "unit": "nM"}, {"measurement": "p (slope)", "setting": "GluN1-1a WT/GluN2B I111A [13]", "value": 0.89}, {"measurement": "A2 ± SE", "setting": "GluN1-1a WT/GluN2B I111A [13]; flexible A2", "value": "73 ± 6", "unit": "%"}, {"measurement": "IC50", "setting": "GluN1-1a WT/GluN2B Q110A [14]", "value": "243 ± 34", "unit": "nM"}, {"measurement": "p (slope)", "setting": "GluN1-1a WT/GluN2B F176Y [15]", "value": 0.82}, {"measurement": "A2, fixed-to-wildtype (*)", "setting": "GluN1-1a WT/GluN2B F176Y [15]; [21]", "value": 95, "unit": "%"}, {"measurement": "IC50", "setting": "GluN1-1a WT/GluN2B F176A [16]", "value": "15500 ± 1790", "unit": "nM"}, {"measurement": "IC50", "setting": "GluN1-1a S132A/GluN2B WT [17]", "value": "691 ± 44", "unit": "nM"}, {"measurement": "p (slope)", "setting": "GluN1-1a Y109S/GluN2B WT [18]", "value": 0.85}, {"measurement": "A2 ± SE", "setting": "GluN1-1a Y109S/GluN2B WT [18]; flexible A2", "value": "79 ± 4", "unit": "%"}, {"measurement": "IC50", "setting": "GluN1-1a WT/GluN2B F176Y [19]", "value": "261 ± 25", "unit": "nM"}, {"measurement": "IC50", "setting": "GluN1-1a L135N/GluN2B WT [20]", "value": "3660 ± 1180", "unit": "nM"}, {"measurement": "p (slope)", "setting": "GluN1-1a WT/GluN2B E236A", "value": 0.99}, {"measurement": "A2 ± SE", "setting": "GluN1-1a WT/GluN2B E236A; flexible A2", "value": "96 ± 8", "unit": "%"}]}
